In patent publication US7405317B2, “Phosphate-bearing prodrugs of sulfonyl hydrazines as hypoxia-selective antineoplastic agents” (priority 2004, dated 2008):
Read-outs that look alike come from different tables or passages of the source.

Legend:
[1] = Solubility of KS119 in co-solvent system; assay type: physicochemical; conditions: polyethylene glycol (PEG) and ethanol co-solvent system, organic solvent or mixture, read-out: solubility in co-solvent system like polyethylene glycol (PEG) and ethanol
[2] = tested on: EMT6 murine mammary carcinoma cells; assay: Aerobic/hypoxic cell survival (clonogenic assay), EMT6; assay type: cell-based; conditions: for cell kill: 0.1% oxygen, 10 μM drug concentration; for cell kill / cytotoxicity to EMT6 cells under oxygenated conditions: FIG. 5; for drug activity as a function of oxygen concentration: 10 or 25 μM, oxygen 0.05% to 21%, FIG. 6; for cytotoxicity to EMT6 cells under oxygenated conditions: normal air (21% oxygen), concentrations up to 25 μM; for in vitro cytotoxic activity to EMT6 cells versus parental racemic drug (potency and aerobic/hypoxic differential): de-phosphorylated enantiomers, aerobic/hypoxic cell assay
Method: (§1) EMT6 or CHO (parental or human cytochrome P-450 reductase transfected) cells, seeded in glass milk dilution bottles, were gassed for 2 hours through a rubber septum fitted with 13 gauge (inflow) and 18 gauge (outflow) needles with a mixture of 5% CO2, oxygen at various concentrations, with the balance of the mixture made up of nitrogen, to establish various hypoxic conditions. Drugs were then injected without disrupting hypoxia. After two hours, cells were collected and plated in a clonogenic assay to determine the surviving fraction, compared to untreated controls.
(§2) For in vitro analysis, KS119W must be converted to KS119OH (1) in an AP-catalyzed reaction shown above in FIG. 2, as the phosphorylated parent drug cannot cross cell membranes. KS119OH is then used in all subsequent in vitro studies shown in this section.
Moreover, the R- and S-enantiomers of KS119W (VNP40541 and VNP40551) were converted to the corresponding de-phosphorylated forms for study in the in vitro aerobic/hypoxic cell assay.

[3] = tested on: H460 human lung carcinoma; assay type: in vivo, mice; conditions: for reduction of final tumor volume compared with control group: H460, daily ip, FIG. 8; for tumor growth inhibition: H460 in CD-1 nude mice, KS119W 4 doses 180 mg/kg and 1 dose 240 mg/kg, CTX 100 mg/kg per dose, ip on days 15, 22, 27, 34, 43, CTX two hours after KS119W, FIG. 9
Method: (§3) The anti-tumor effects of aforementioned prodrugs are evaluated in both solid and liquid tumor models, including the B16-F10 murine melanoma, HTB177 human lung carcinoma models, DLD1 human colon carcinoma, EMT-6 murine mammary gland carcinoma, L1210 murine leukemia, lymphoma, prostate cancer, pancreatic cancer, and head-and-neck cancer. The prodrugs are given intravenously, orally, or intraperitoneally at doses from 10 mg/kg to 2000 mg/kg; they are give at different dosing schedules such as 4 times daily, once daily, or once every several days for up to 60 doses. Testing tumor cells were implanted subcutaneously into mice, which were randomized into groups immediately after tumor cell implantation (Day 0). Mice were injected intraperitoneally (ip) with either a bolus injection of 0.1 mL PBS or drug. The treatment was carried out in a designed dosing schedule. Tumor measurement in three dimensions was determined once a week with the formula L×H×W/2, where L, H, and W represent length, height, and width, respectively.
(§4) Efficacy of KS119 was studied in murine tumor model and human xenograft models. EMT-6 murine mammary carcinoma cells (3×10^5 cells/mouse) were implanted subcutaneously into Balb/c mice. H460 human lung carcinoma cells, HT29 human colon carcinoma cells and SHP77 human lung carcinoma cells were established as solid xenografts in nu/nu CD-1 mice and Scid/Beige mice with 7×10^7 cells/mouse, respectively. After implantation, tumors were allowed to grow to a size of 150 to 200 mm^3 before starting treatment with KS119. KS119 was formulated in a solvent containing polyethylene glycol 300 (PEG), ethyl alcohol, citric acid, and ascorbic acid.
(§5) Efficacies of KS119W and KS119 were compared with equivalence molar doses in EMT-6 tumor and H460 tumor models. KS119W was formulated with 0.25M sodium bicarbonate solution. The treatment was started when tumors researched 150 to 200 mm^3, and lasted up to 2 weeks. KS119 at doses of 80 and 100 mg/kg and KS119W at doses of 97.6 and 121.3 mg/kg were daily administrated into mice via ip injection. […] To assess the toxicity of treatment, body weight and peripheral blood cell count were monitored after treatment.
(§6) Combined therapy of KS119W with cytoxan (CTX) was evaluated by using KS119W at dose below the MTD in combination with nontoxic dose of CTX against EMT-6 murine mammary carcinoma and H460 human lung carcinoma in CD-1 nude mice. The tumors were allowed to grow to a size of approximately 200 mm^3. In H460 tumor model, the animals received either with 4 doses 180 mg/kg and 1 dose 240 mg/kg of KS119 or CTX at dose of 100 mg/kg per dose per animal, ip injecting the drugs on 15, 22, 27, 34 and 43 days after the tumor implantation. In the combination studies, CTX was given two hours after dosing KS119W.

[4] = Toxicity of treatment in tumor-bearing mice (body weight, blood cell count, appearance); assay type: in vivo; conditions: for toxicity of treatment (body weight, peripheral blood cell count): KS119 80 and 100 mg/kg, KS119W 97.6 and 121.3 mg/kg, daily ip
Method: as §3, with “respectively. The toxicity of these drugs in mice was mild as determined by body weight loss and animal appearance.” for “respectively.”
Efficacies of KS119W and KS119 were compared with equivalence molar doses in EMT-6 tumor and H460 tumor models. KS119W was formulated with 0.25M sodium bicarbonate solution. The treatment was started when tumors researched 150 to 200 mm^3, and lasted up to 2 weeks. KS119 at doses of 80 and 100 mg/kg and KS119W at doses of 97.6 and 121.3 mg/kg were daily administrated into mice via ip injection. […] The toxicity of KS119 and KS119W were dose-dependent. To assess the toxicity of treatment, body weight and peripheral blood cell count were monitored after treatment.
as §6, with “KS119W. […] The inhibition of combination therapy was statistically significant against all control groups with p values of 0.003, 0.015 and 0.038, respectively. Additive toxicity at the doses used for combination was manageable; while the 180 mg/kg qw ×4 doses of KS119W alone caused a maximum net body weight loss of 4.5%, the same dose in combination with 4 doses of CTX at 100 mg/kg per week caused 8.6% weight loss but no death. A similar degree of growth inhibition was also observed with EMT-6 tumor model. […]” for “KS119W.”

[5] = tested on: EMT-6 murine mammary carcinoma; assay type: in vivo, mice; conditions: for tumor growth inhibition: EMT-6, KS119W daily 97 mg/kg for 7 doses, CTX 100 mg/kg ip once per week for 4 doses
Method: as §3, §4, §5, §6

[6] = tested on: CHO-SCS-II (non-transfected parental line); assay: Aerobic/hypoxic cell survival, parental CHO cells; assay type: cell-based; conditions: drug 10 μM
Method: as §1, §2
(§7) Like KS119, cytochrome P-450 reductase can activate KS1190H under hypoxic conditions.

[7] = tested on: CHO-450red (human cytochrome P-450 reductase transfected CHO cells); assay: Aerobic/hypoxic cell survival, cytochrome P-450 reductase transfected CHO cells; assay type: cell-based; conditions: drug 10 μM
Method: as §1, §2, §7

[8] = tested on: SHP77 human lung carcinoma; assay: In vivo anti-tumor activity, SHP77 xenograft; set-up: species or system mice; conditions: SHP77/Scid-Beige; dose VNP40541 110 mpk, VNP40551 85 mpk
Method: as §3, with “respectively. The toxicity of these drugs in mice was mild as determined by body weight loss and animal appearance.” for “respectively.”
Efficacy of KS119 was studied in murine tumor model and human xenograft models. EMT-6 murine mammary carcinoma cells (3×10^5 cells/mouse) were implanted subcutaneously into Balb/c mice. […]

[9] = Maximum tolerated dose (MTD) finding; assay type: in vivo, mice
Method: In order to fairly select a better compound from two enantiomers of KS119W for future clinical development, finding maximum tolerated dose (MTD) for VNP40541 (R-form) and VNP40551 (S-form) was conducted and the results were shown as Table 3.

[10] = KS119W 97.2 mg/kg ×10 doses, KS119 equal molar dose 80 mg/kg
[11] = KS119W 121.6 mg/kg ×7 doses, KS119 equal molar dose 100 mg/kg

SMILES: CC(OC(=O)N(N(CCCl)S(C)(=O)=O)S(C)(=O)=O)c1ccc([N+](=O)[O-])cc1 (stereo not shown) [KS119, 1,2-Bis(methylsulfonyl)-2-(2-chloroethyl)-hydrazine carboxylic acid 1-(4-nitrophenyl)ethyl ester, reference compound]
- solubility [1]: < 5000 µg/mL
- cell kill [2]: ~5 orders of magnitude
- drug activity as a function of oxygen concentration [2]: significant drug activity at all oxygen concentrations below 10% oxygen
- cytotoxicity to EMT6 cells under oxygenated conditions [2]: virtually inactive
- reduction of final tumor volume compared with control group [3, 10]: 40%
- reduction of final tumor volume compared with control group [3, 11]: 40%
- toxicity of treatment (body weight, peripheral blood cell count) [4]: not significant hematological toxicity or severe weight loss

SMILES: C[C@@H](OC(=O)N(N(CCCl)S(C)(=O)=O)S(C)(=O)=O)c1ccc([N+](=O)[O-])c(O)c1 [R-KS119OH]
- in vitro cytotoxic activity to EMT6 cells versus parental racemic drug (potency and aerobic/hypoxic differential) [2]: very similar to the parental racemic drug

SMILES: O=P1(N(CCCl)CCCl)NCCCO1 (stereo not shown) [CTX, reference compound]
- tumor growth inhibition [5]: negligible effect
- tumor growth inhibition [3]: 54%

SMILES: CC(OC(=O)N(N(CCCl)S(C)(=O)=O)S(C)(=O)=O)c1ccc([N+](=O)[O-])c(O)c1 (racemic) [KS119OH]
- cell kill [2]: ~5 orders of magnitude
- drug activity as a function of oxygen concentration [2]: significant drug activity at all oxygen concentrations below 10% oxygen
- cytotoxicity to EMT6 cells under oxygenated conditions [2]: virtually inactive

SMILES: CC(OC(=O)N(N(CCCl)S(C)(=O)=O)S(C)(=O)=O)c1ccc([N+](=O)[O-])c(OP(=O)(O)O)c1 (stereo not shown) [KS119W, 1,2-Bis(methylsulfonyl)-2-(2-chloroethyl)hydrazine-carboxylic acid 1-(3-dihydrogenphosphonoxy-4-nitrophenyl)ethyl ester]
- Surviving fraction at 0.1% oxygen [6]: 0.3336
- Surviving fraction in air [6]: 1.185
- Surviving fraction at 0.1% oxygen [7]: 0.009444
- Surviving fraction in air [7]: 0.8791
- tumor growth inhibition [5]: 59%
- reduction of final tumor volume compared with control group [3, 10]: 60%
- reduction of final tumor volume compared with control group [3, 11]: 78%
- tumor growth inhibition [3]: 78%
- toxicity of treatment (body weight, peripheral blood cell count) [4]: not significant hematological toxicity or severe weight loss
- maximum net body weight loss ([4]; KS119W 180 mg/kg qw ×4 doses alone or with 4 doses of CTX at 100 mg/kg per week): 4.5%

SMILES: C[C@H](OC(=O)N(N(CCCl)S(C)(=O)=O)S(C)(=O)=O)c1ccc([N+](=O)[O-])c(O)c1 [S-KS119OH]
- in vitro cytotoxic activity to EMT6 cells versus parental racemic drug (potency and aerobic/hypoxic differential) [2]: very similar to the parental racemic drug

SMILES: C[C@H](OC(=O)N(N(CCCl)S(C)(=O)=O)S(C)(=O)=O)c1ccc([N+](=O)[O-])c(OP(=O)(O)O)c1 [VNP40551]
- Surviving fraction at 0.1% oxygen [6]: 0.1188
- Surviving fraction in air [6]: 1.148
- Surviving fraction at 0.1% oxygen [7]: 0.002553
- Surviving fraction in air [7]: 1.015
- Inhibition (%) ([5]; EMT6/BLAB-c Mice, dose VNP40541 85-115 mpk, VNP40551 55-85 mpk): 52-78%
- Inhibition (%) ([3]; H460/Nude Mice, dose VNP40541 80-140 mpk, VNP40551 40-80 mpk): 53-80%
- Inhibition (%) [8]: 82%
- MTD ([9]; BALB/c mice, × 5): 85 mpk
- MTD ([9]; Nude CD-1 mice, × 10): 80 mpk
- MTD ([9]; Scid/Beige mice, × 8): 85 mpk
